Measured values: patent US20160296586A1, “AGENT FOR PREVENTING OR AM[…] ENDOTHELIAL MALFUNCTION” (KYOWA HAKKO BIO CO., LTD., priority 2012, published 2016)

Test system: normal human umbilical vein endothelial cell (HUVEC)
Test: NO production: nitrite (NO2) in HUVEC culture supernatant by HPLC
Assay type: cell-based
Details: 24-hour culture, vs control (PBS), FIG. 1
Method: A normal human umbilical vein endothelial cell (HUVEC) line available from Clonetics (SanDiego, Calif., USA) was used with EGM-2 Bullet Kit medium containing 2% FBS (Takara Bio). The cells were cultured in at 37° C., in 5% CO2 incubator, and used for experiment after 4 to 6 passages. Citrulline and reduced glutathione were obtained from Kyowa Hakko Bio.
A cell suspension (0.45 mL) with the adjusted initial cell combination of 5×10^5 cells/mL was inoculated in a 24-well plate (IWAKI). After 40-hour culture, the media were replaced with those containing citrulline (final concentration 0.3 mM; citrulline group), reduced glutathione (final concentration 1 mM: high-dose glutathione group), and a citrulline and reduced glutathione mixture (citrulline final concentration 0.3 mM; glutathione final concentration 0.3 mM; citrulline+low -dose glutathione group). Media with the sole addition of solvent (PBS) were used as a control group. After 24-hour culture, the cell culture (100 μL) was centrifuged at 12,000 rpm for 10 minutes, and the concentration of nitrite (NO2), which is the stable NO metabolite, in culture supernatant was quantified by HPLC (ENO-20, EICOM).

SMILES	effect on NO production (nitrite NO2 concentration in medium) (citrulline final concentration 0.3 mM)	effect on NO production (nitrite NO2 concentration in medium) (reduced glutathione final concentration 1 mM (high-dose))
NC(=O)NCCC[C@H](N)C(=O)O [citrulline]	no effect on NO production	
N[C@@H](CCC(=O)N[C@@H](CS)C(=O)NCC(=O)O)C(=O)O [glutathione, reduced glutathione]		no effect on NO production
